Laboratory results: ChEMBL document CHEMBL1909046, “DrugMatrix in vitro pharmacology data”

Tests used:
[1] = target: Platelet-activating factor receptor (Homo sapiens, UniProt P25105); type: tissue-based; note: in other assays of this panel Not Active means under 50% inhibition at 10 µM
[2] = DRUGMATRIX: beta-Lactamase enzyme inhibition (substrate: Nitrocefin); design: species or system Bacillus cereus; conditions: Not Active = under 50% inhibition at 10 µM
[3] = target: T1, Cholecystokinin receptor type A (Homo sapiens, UniProt P32238); type: cell membranes, Membrane; conditions: 1321-n1; note: in other assays of this panel Not Active means under 50% inhibition at 10 µM
T1 sequence (P32238 whole entry): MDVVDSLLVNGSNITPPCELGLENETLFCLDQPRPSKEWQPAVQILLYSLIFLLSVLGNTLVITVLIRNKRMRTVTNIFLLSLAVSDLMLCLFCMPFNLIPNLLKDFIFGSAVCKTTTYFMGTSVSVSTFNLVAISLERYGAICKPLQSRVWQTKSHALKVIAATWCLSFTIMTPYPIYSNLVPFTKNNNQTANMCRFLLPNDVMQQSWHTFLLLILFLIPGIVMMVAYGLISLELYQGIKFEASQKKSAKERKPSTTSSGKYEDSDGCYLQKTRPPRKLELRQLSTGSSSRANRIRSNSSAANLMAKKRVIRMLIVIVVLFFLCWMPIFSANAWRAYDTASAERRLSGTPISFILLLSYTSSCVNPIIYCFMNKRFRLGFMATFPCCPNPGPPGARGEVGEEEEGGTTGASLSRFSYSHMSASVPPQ

[4] = DRUGMATRIX: Calcium Channel Type L, Benzothiazepine radioligand binding (ligand: [3H] Diltiazem); type: cell membranes, Rattus norvegicus, Wistar, Brain, Membrane; conditions: Not Active = under 50% inhibition at 10 µM
Glycine receptor = Glycine receptor (Rattus norvegicus, UniProt P22771+P24524+P07727+P20781); type: cell membranes, Wistar, Spinal cord, Membrane; note: in other assays of this panel Not Active means under 50% inhibition at 10 µM
[5] = target: T2, Alpha-2C adrenergic receptor (Homo sapiens, UniProt P18825); assay: DRUGMATRIX: Adrenergic Alpha-2C radioligand binding (ligand: [3H] MK-912); type: cell membranes, Sf9, Membrane; conditions: sf9
T2 sequence (P18825 whole entry): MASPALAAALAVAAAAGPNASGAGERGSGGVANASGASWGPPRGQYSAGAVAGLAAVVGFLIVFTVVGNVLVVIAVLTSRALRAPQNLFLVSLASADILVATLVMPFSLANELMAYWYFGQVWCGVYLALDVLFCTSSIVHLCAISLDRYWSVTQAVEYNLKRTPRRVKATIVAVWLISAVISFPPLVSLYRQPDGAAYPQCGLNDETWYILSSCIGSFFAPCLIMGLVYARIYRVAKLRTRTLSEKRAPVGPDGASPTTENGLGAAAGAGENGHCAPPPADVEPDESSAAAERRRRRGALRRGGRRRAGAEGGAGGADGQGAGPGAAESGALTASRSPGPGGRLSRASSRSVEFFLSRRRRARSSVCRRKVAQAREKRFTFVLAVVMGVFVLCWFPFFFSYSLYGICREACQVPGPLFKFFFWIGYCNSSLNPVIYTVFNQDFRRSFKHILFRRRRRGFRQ

Melanocortin receptor 3 = Melanocortin receptor 3 (Homo sapiens, UniProt P41968); type: cell membranes, Membrane; conditions: hek293; note: in other assays of this panel Not Active means under 50% inhibition at 10 µM
Chain of Melanocortin receptor 3 (P41968 whole entry): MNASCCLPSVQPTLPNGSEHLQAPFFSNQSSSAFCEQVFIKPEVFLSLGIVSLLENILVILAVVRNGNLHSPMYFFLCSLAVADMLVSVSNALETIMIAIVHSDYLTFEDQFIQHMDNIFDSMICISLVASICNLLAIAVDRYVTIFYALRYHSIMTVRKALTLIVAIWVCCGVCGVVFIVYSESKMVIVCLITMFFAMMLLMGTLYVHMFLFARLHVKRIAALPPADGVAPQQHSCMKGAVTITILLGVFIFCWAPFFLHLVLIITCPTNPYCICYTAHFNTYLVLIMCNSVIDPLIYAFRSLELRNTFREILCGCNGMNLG

Chain of Platelet-activating factor receptor (P25105 whole entry): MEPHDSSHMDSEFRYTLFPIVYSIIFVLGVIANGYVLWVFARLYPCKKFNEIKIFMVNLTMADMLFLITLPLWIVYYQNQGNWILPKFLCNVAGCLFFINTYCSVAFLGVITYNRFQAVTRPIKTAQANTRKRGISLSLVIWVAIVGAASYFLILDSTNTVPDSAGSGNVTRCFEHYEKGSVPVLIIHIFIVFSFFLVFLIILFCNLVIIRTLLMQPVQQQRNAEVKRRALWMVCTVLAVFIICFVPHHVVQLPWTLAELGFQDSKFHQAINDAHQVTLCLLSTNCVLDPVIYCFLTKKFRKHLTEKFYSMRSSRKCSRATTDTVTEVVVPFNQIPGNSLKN

| SMILES | IC50 [1] | IC50 [2] | Ki [2] | IC50 [3] | IC50 ([4]; read-out: IC50) | Ki ([4]; read-out: Ki) | IC50 (Glycine receptor) | IC50 [5] | IC50 (Melanocortin receptor 3) | IC50 [4] | Ki [4] |
| --- | --- | --- | --- | --- | --- | --- | --- | --- | --- | --- | --- |
| CN1CCN(C(c2ccccc2)c2ccccc2)CC1 [CYCLIZINE] | Not Active | Not Active | Not Active | Not Active | 2520 nM | 2240 nM | Not Active | Not Active | Not Active |  |  |
| CC(C)(C)NCC(O)COc1cccc2c1CC(O)C(O)C2 (stereo not given) [NADOLOL] | Not Active | Not Active | Not Active | Not Active |  |  | Not Active | Not Active | Not Active | Not Active | Not Active |
| CCCNC(=O)NS(=O)(=O)c1ccc(Cl)cc1 [CHLORPROPAMIDE] | Not Active | Not Active | Not Active | Not Active |  |  | Not Active | Not Active | Not Active | Not Active | Not Active |
| CO/N=C(\C(=O)N[C@@H]1C(=O)N2C(C(=O)O)=C(COC(C)=O)CS[C@H]12)c1csc(N)n1 [CEFOTAXIME] | Not Active | Not Active | Not Active | Not Active |  |  | Not Active | Not Active | Not Active | Not Active | Not Active |
| Nc1cc(-c2ccncc2)c[nH]c1=O [INAMRINONE] | Not Active | Not Active | Not Active | Not Active |  |  | Not Active | Not Active | Not Active | Not Active | Not Active |
